What was measured:
Type in all cases: cell-based
[1] = system: Escherichia coli ATCC2592; assay: Antimicrobial activity assay, MIC by broth microdilution; conditions: 35° C., 20 to 24 h
Method: (§1) The antibacterial activity of compounds is determined by the minimal inhibitory concentration (MIC) method. MICs for all bacteria except pneumococci and Haemophilus influenzae are obtained by broth microdilution with cation-adjusted Mueller-Hinton broth (CAMHB; BBL), according to CLSI guidelines (National Committee for Clinical Laboratory Standards. 2003. Methods for dilution antimicrobial susceptibility tests for bacteria that grow aerobically, 5th ed.; a approved standard M7-A6. National Committee for Clinical Laboratory Standards, Wayne, Pa.), with the following modifications: (i) for pneumococci CAMHB is supplemented with 5% (^v/v) horse serum; (ii) for Haemophilus influenzae CAMHB is supplemented with 5% (^v/v) Fildes enrichment (BBL) (Pankuch, G. A., Hoellman, D. B., Lin, G., Bajaksouzian, S., Jacobs, M. R., and Appelbaum, P. C. 1998. Activity of HMR 3647 compared to those of five agents against Haemophilus influenzae and Moraxella catarrhalis by MIC determination and time-kill assay. Antimicrob. Agents Chemother. 42:3032-3034). Microtiter plates are incubated at 35° C. in ambient air for 20 to 24 h, then inspected using an illuminated microtiter plate reader fitted with a magnifying mirror (MIC 2000; Cooke Laboratory Products, Alexandria, Va.). Compounds of the present invention are tested against several bacteria strains comprising some Acinetobacter baumannii, Enterococcus faecalis, Enterococcus faecium, Escherichia coli, Haemophilus influenzae, Klebsiella pneumoniae, Pseudomonas aeruginosa, Staphylococcus aureus, Staphylococcus epidermidis, Streptococcus pyogenes; Enterobacter aerogenes; Enterobacter cloacae and Streptococcus pneumoniae. All exemplified compounds have a MIC values for Staphylococcus aureus ATCC29213, Staphylococcus epidermidis ATCC14990 and Streptococcus pneumoniae ATCC49619 lower or equal to 8 mg/L except examples 25 and 56 for Staphylococcus epidermidis ATCC14990 and examples 20, 49, 51, 56, 58, 60, 66 and 76 for Streptococcus pneumoniae ATCC4961.

[2] = system: Streptococcus pneumoniae ATCC49619; assay: Antimicrobial activity assay, MIC by broth microdilution (CAMHB with 5% horse serum); conditions: 35° C., 20 to 24 h
Method: as §1

[3] = system: Staphylococcus aureus and/or Staphylococcus epidermidis and/or Streptococcus pneumoniae and/or Escherichia coli; assay: MIC, summary statement for staphylococci, pneumococci and E. coli; conditions: 'generally'
Method: (§2) The antibacterial activity of compounds is determined by the minimal inhibitory concentration (MIC) method. MICs for all bacteria except pneumococci and Haemophilus influenzae are obtained by broth microdilution with cation-adjusted Mueller-Hinton broth (CAMHB; BBL), according to CLSI guidelines (National Committee for Clinical Laboratory Standards. 2003. Methods for dilution antimicrobial susceptibility tests for bacteria that grow aerobically, 5th ed.; a approved standard M7-A6. National Committee for Clinical Laboratory Standards, Wayne, Pa.), with the following modifications: (i) for pneumococci CAMHB is supplemented with 5% (^v/v) horse serum; (ii) for Haemophilus influenzae CAMHB is supplemented with 5% (^v/v) Fildes enrichment (BBL) (Pankuch, G. A., Hoellman, D. B., Lin, G., Bajaksouzian, S., Jacobs, M. R., and Appelbaum, P. C. 1998. Activity of HMR 3647 compared to those of five agents against Haemophilus influenzae and Moraxella catarrhalis by MIC determination and time-kill assay. Antimicrob. Agents Chemother. 42:3032-3034). Microtiter plates are incubated at 35° C. in ambient air for 20 to 24 h, then inspected using an illuminated microtiter plate reader fitted with a magnifying mirror (MIC 2000; Cooke Laboratory Products, Alexandria, Va.). […]

[4] = system: Staphylococcus aureus and/or Staphylococcus epidermidis and/or Streptococcus pneumoniae; assay: MIC, summary statement for staphylococci and pneumococci; conditions: 'generally'
Method: as §2

| SMILES | MIC [1] [µg/mL] | MIC [2] [µg/mL] | also measured |
| --- | --- | --- | --- |
| COc1ccc2ncc3c(c2c1)CC(N1CCC(NCc2ccc4c(c2)NC(=O)CS4)CC1)CO3 (stereo not drawn) [Example 2, 6-{[1-(6-methoxy-3,4-dihydro-2H-1-oxa-9-aza-phenanthrene-3-yl)-piperidin-4-ylamino]-methyl}-4H-benzo[1,4]thiazine-3-one] | ≤ 8 | – | – |
| COc1ccc2ncc3c(c2n1)OC([C@H]1CC[C@H](NC(=O)c2ccc4c(c2)NC(=O)CS4)CC1)CN3C (relative stereo) [Example 49, 3-oxo-3,4-dihydro-2H-benzo[1,4]thiazine-6-carboxylic acid [trans-4-(6-methoxy-1-methyl-2,3-dihydro-1H-4-oxa-1,5,9-triaza-phenanthren-3-yl)-cyclohexyl]-amide] | – | > 8 | – |
| COc1ccc2ncc3c(c2c1)CC(N1CCC(NCc2ccc4c(c2)NC(=O)CO4)CC1)CS3 (stereo not drawn) [Example 3, 6-{[1-(6-methoxy-3,4-dihydro-2H-1-thia-9-aza-phenanthrene-3-yl)-piperidin-4-ylamino]-methyl}-4H-benzo[1,4]oxazin-3-one] | ≤ 8 | – | – |
| COc1ccc2ncc3c(c2c1)CC(n1cc(NC(=O)c2ccc4c(c2)NC(=O)CS4)cn1)CO3 (stereo not drawn) [Example 4, 3-oxo-3,4-dihydro-2H-benzo[1,4]thiazine-6-carboxylic acid [1-(6-methoxy-3,4-dihydro-2H-1-oxa-9-aza-phenanthrene-3-yl)-1H-pyrazol-4-yl]-amide] | ≤ 8 | – | – |
| COc1ccc2ncc3c(c2c1)CC(N1CCC(NC(=O)c2ccc4c(c2)NC(=O)CS4)CC1)CO3 (stereo not drawn) [Example 1, 3-oxo-3,4-dihydro-2H-benzo[1,4]thiazine-6-carboxylic acid [1-(6-methoxy-3,4-dihydro-2H-1-oxa-9-aza-phenanthrene-3-yl)-piperidin-4-yl]-amide] | ≤ 8 | – | – |
| COc1ccc2ncc3c(c2n1)NC([C@H]1CC[C@H](NC(=O)c2ccc4c(c2)NC(=O)CO4)CC1)CO3 (relative stereo) [Example 35, 3-oxo-3,4-dihydro-2H-benzo[1,4]oxazine-6-carboxylic acid [trans-4-(6-methoxy-3,4-dihydro-2H-1-oxa-4,5,9-triaza-phenanthren-3-yl)-cyclohexyl]-amide] | ≤ 8 | – | MIC [3]: ≤ 8 µg/mL |
| O=C1CSc2ccc(C(=O)N[C@H]3CC[C@H](C4COc5cnc6ccccc6c5C4)CC3)cc2N1 (relative stereo) [Example 50, 3-oxo-3,4-dihydro-2H-benzo[1,4]thiazine-6-carboxylic acid [trans-4-(3,4-dihydro-2H-1-oxa-9-aza-phenanthren-3-yl)-cyclohexyl]-amide] | – | – | MIC [4]: ≤ 8 µg/mL |
| COc1ccc2ncc3c(c2n1)N(C)C(c1ccc(NC(=O)c2ccc4c(c2)NC(=O)CS4)cn1)CO3 (stereo not drawn) [Example 27, 3-oxo-3,4-dihydro-2H-benzo[1,4]thiazine-6-carboxylic acid [6-(6-methoxy-4-methyl-3,4-dihydro-2H-1-oxa-4,5,9-triaza-phenanthren-3-yl)-pyridin-3-yl]-amide] | ≤ 8 | – | MIC [3]: ≤ 8 µg/mL |
| COc1ccc2ncc3c(c2n1)CC([C@H]1CC[C@H](NC(=O)c2ccc4c(c2)NC(=O)CS4)CC1)CN3 (relative stereo) [Example 76, 3-oxo-3,4-dihydro-2H-benzo[1,4]thiazine-6-carboxylic acid [trans-4-(6-methoxy-1,2,3,4-tetrahydro-1,5,9-triaza-phenanthren-3-yl)-cyclohexyl]-amide] | – | > 8 | – |
| COc1ccc2ncc3c(c2c1)CC(n1cc(NCCSc2cccs2)cn1)CO3 (stereo not drawn) [Example 20, [1-(6-methoxy-3,4-dihydro-2H-1-oxa-9-aza-phenanthren-3-yl)-1H-pyrazol-4-yl]-[2-(thiophen-2-ylsulfanyl)-ethyl]-amine] | – | > 8 | – |

Source: US8927541B2, “Tricyclic antibiotics” (Basilea Pharmaceutica AG, priority 2009, dated 2015)
